We go through three compounds from patent publication US7432045B2 (priority 2003, dated 2008).

Peptide text beside a SMILES is read from it. * marks the point of attachment. Biotin = O=C1N[C@H]2[C@H](CS[C@H]2CCCCC(=O)*)N1; Ahx = NCCCCCC(=O)O

For data set [1], the system named is HSV-1 KOS mutant hrR3. Kind of data set: Release of preadsorbed virus into the culture medium. It is filed as cell-based. As to the method: Release of preadsorbed virus into the culture medium: Virus preadsorbed to Vero cells (m.o.i.=0.02) was exposed to heparin (porcine intestinal mucosa; Sigma-Aldrich Co., St. Louis Mo.; #H9399) or to peptides in 40 μL of serum-supplemented DMEM. After 1 h at 4° C., the culture medium and two 40 μL rinses were collected and pooled from eight identically treated wells. Pooled samples were centrifuged at 14,000×g in an Eppendorf 5415 centrifuge for 99 min at 4° C. or they were first adjusted to 0.5 M NaCl by adding 2 M NaCl dissolved in serum-supplemented DMEM prior to centrifugation. Supernatants were aspirated, the pellets were resuspended in 120 μL serum-supplemented DMEM and duplicate 50 μL aliquots were assayed for infectivity in Vero cell cultures. Calculations of the amount of released virus assumed 47% virus recovery in the centrifugation step, since control experiments had established that 47% of virus input was recovered regardless of whether the virus was sedimented in the presence or absence of 0.5 M NaCl.
In this example pre-adsorbed virus was exposed to heparin (FIG. 19 Panels A, B) or TAT-Cd peptide (FIG. 19 Panels C, D) for 1 h at 4° C. (FIG. 19 Panels A, B, C) or 18° C. (FIG. 19 Panel D) and any virus released into the culture medium during this time was collected and pelleted in the presence (◯) or absence (▴) of 0.5 M NaCl and assayed for infectivity as described in Example 1. […] Virus inhibition (●) corresponds to the number of LacZ+ cells seen in the absence of inhibitor minus the number of LacZ+ cells seen in the presence of inhibitor and is equivalent to the maximal amount of virus potentially released into the culture medium as a result of virus inhibition. Panel B compares the amount of infectious virus recovered in the presence (◯; data from Panel A) and absence (▴) of 0.5 M NaCl at an expanded scale.

A further data set has as its system cornea. Kind of data set: In vivo peptide toxicity, cornea. Further details: species or system BALB/C mice. How it is done:
(i) Cornea: Four-6-week-old female BALB/C mice (Harlan Sprague Dawley, Indianapolis, Ind.) were anesthetized by halothane inhalation (3-5%). A 2.0 μL drop of serum-free 5×DMEM solution containing 6.1 mM EB, 6.1 mM EBX, 7.5 mM TAT-C, 7.5 mM n50,51 TAT-C, 7.5 mM TAT-Cd, or 11.2 mM bHOMd or serum-free DMEM only (control) was then placed on the cornea and the mice were returned to their cages. Each group consisted of 5 mice, except for 11.2 mM bHOMd, and 7.5 mM TAT-Cd, which consisted of 4 mice. Only the right eye in each mouse received the peptide. Treatments were given 4 times per day at least 2 hrs apart for 7 days. On days 1, 5, and 7, the mice were examined microscopically for evidence of blepharitis, punctate keratopathy, dendrite ulceration and geographic ulceration. Damage to the corneal epithelium was assessed by staining with 1.0% […] and examination under a microscope with blue light. Blepharitis was scored: 1+ for noticeable puffy eyelids, 2+ for puffy eyelids with moderate crusting, 3+ for eye 50% swollen shut with severe crusting, and 4+ for eye totally swollen and crusted shut (Brandt et al., 1992). Punctate keratopathy, dendrite ulceration, and geographic ulceration were scored: 1+ for <25% of the cornea involved, 2+ for 25-50% involved, 3+ for 50-75% involved, and 4+ for >75% involved. The mean disease score for each group of mice on each day was calculated by the sum of disease scores in each group on each day divided by the numbers of mice in that group. On day 7, following the last treatment, the mice were sacrificed and the eyes were removed, fixed in 10% formalin, embedded in paraffin, sectioned (5μ each), and stained with hematoxylin and eosin as we have described previously (Brandt et al., 1996). Sections were then examined for evidence of damage to the cornea, sclera, lens, and retina.

The subject of data set [2] is HSV-1 KOS mutant hrR3. Kind of data set: Inactivation of pre-adsorbed virus (virus inactivation). It counts as cell-based. The following applies: pre-adsorbed virus. As to the method:
Two assays were used to assess the ability of the TAT peptides to inhibit infection of Vero cells with the hrR3 virus. In both assays, the virus was preadsorbed to cells at 4° C. and entry was initiated in the presence of peptide by shifting the cultures to a permissive temperature (30-37° C.). One hour later, the peptide was rinsed off. The entry blocking activity was measured in half of the cultures, in which any extracellular virus remaining after the peptide treatment was inactivated with low pH citrate buffer. The rest of the cultures were exposed to PBS instead of citrate buffer and used to measure virus inactivation. Virus inactivation depended on persistent effects of the peptide lasting for a period of eight hours. At the end of that period, all cultures were fixed and infected cells were detected by staining with X-gal.
Virus (m.o.i.=0.025) was preadsorbed to Vero cells for 1 h at 4° C. before cultures were exposed to TAT-C (FIG. 15A), bTAT-9X (FIG. 15B), or n50,51TAT-C (FIGS. 15C, 15D) for 1 h at 33 (FIGS. 15A, 15B), 31 (FIG. 15C), or 37° C. (FIG. 15D). […] Inhibition of entry was measured in the citrate-treated cultures, in which any remaining external virus was inactivated immediately following exposure to peptide (●). Persistent virus inactivation lasting, at least in part, for the 8 h period following exposure to peptide, was measured in the PBS-treated cultures (◯). The IC50s measured in these experiments are included in Table 5.

In a further data set the test system is hrR3 virions. Kind of data set: Inactivation of virions in solution. It counts as cell-based, HSV-1. The following applies: 200 μM peptide. How it is done: Inactivation of virions: To assess the ability of peptides to inactivate virions, 3-4×10^6 pfu/mL of virus was mixed on ice with peptide in serum-free DMEM and incubated for 1 h at 4 or 37° C. Aliquots (10 μL) were diluted 1000-fold into peptide-free serum-supplemented DMEM at 23° C. and 50 μL aliquots were assayed in triplicate for infectivity in Vero cell cultures (dilution assay). Alternatively, 10 μL aliquots were diluted into 1 mL of ice-cold peptide-free serum-supplemented DMEM and the virus was pelleted as described above (centrifugation assay). Viral pellets were then resuspended in 250 μL serum-supplemented DMEM and 50 μL aliquots were assayed in triplicate for infectivity in Vero cell cultures.
Some of the virus diluted without the addition of NaCl was pelleted immediately (Control), while the rest of the diluted virus was stored at 4° C. and pelleted 19 h later. The virus was pelleted and assayed for infectivity as described in Example 1.

The next data set addresses T1, trypsin (Sus scrofa, UniProt P00761).
T1 construct: purchased BioWhittaker 17-160E
Kind of data set: Trypsinization of peptides. The following applies: 0.005 or 0.01% trypsin, 1 h at 37° C. As to the method:
Trypsinization of peptides: Peptides dissolved in serum-free DMEM were exposed to 0.005 or 0.01% trypsin for 1 h at 37° C. The trypsin was then inactivated with a 1.3-fold molar excess of soybean trypsin inhibitor and the ability of the peptides to inactivate virions was tested as described above (centrifugation assay). In controls, trypsin was inactivated before it was added to the peptides.
In Panel B, peptides in serum-free medium were pre-treated with active trypsin (open bars) or inactivated trypsin (shaded bars) for 1 h at 37° C. before they were added to virions for 1 h at 37° C. (see Example 1). The treated virions were then pelleted and resuspended in serum-supplemented medium and assayed for infectivity without further trypsinization. The peptide concentrations were as high or higher than those used in Panel A: […] TAT-C, 50 μM bKLA, 200 μM EB and bHOM-9. Trypsin concentrations used in both Panels A and B, were 0.005% (for bKLA, EB and bHOM-9) or 0.01% (for TAT-C and the ‘no peptide’ control).

The nature of data set [3]: MTS assay. The following applies: human, DP-9 cells (foreskin fibroblast).
The nature of data set [4]: MTS assay. The following applies: human, HeLa cells. In general terms: Formazan colour is commonly taken as a measure of viable cells.
Data set [5] concerns Vero, HeLa, CV-1PD, TM-1, DP-9, CEMx174, NIKS, W12E cells. Kind of data set: MTS assay, eight cell lines. The following applies: eight cell lines.
The nature of data set [6]: MTS assay. The following applies: human, NIKS cells (normal immortalized keratinocytes).
A short description of data set [7]: MTS assay. The following applies: human, W12E cells (cervical carcinoma cell line).
Data set [8] can be described thus: MTS assay. The following applies: human, TM-1 cells (trabecular meshwork).
Data set [9] can be described thus: MTS assay. The following applies: African green monkey, Vero cells.
A short description of data set [10]: MTS assay. The following applies: African green monkey, CV-1PD cells (kidney).
A short description of data set [11]: MTS assay. The following applies: human, CEMx174 cells (T-B hybridoma).
Another data set relates to vagina. The following applies: mouse, in vivo.

T1 sequence (P00761 9-231): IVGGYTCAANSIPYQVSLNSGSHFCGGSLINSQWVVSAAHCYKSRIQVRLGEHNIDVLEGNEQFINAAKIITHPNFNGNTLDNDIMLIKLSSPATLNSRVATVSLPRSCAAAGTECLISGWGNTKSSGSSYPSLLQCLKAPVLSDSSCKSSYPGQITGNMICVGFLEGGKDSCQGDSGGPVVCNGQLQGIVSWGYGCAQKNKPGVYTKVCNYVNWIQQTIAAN

Consider `N=C(N)NCCC[C@@H](NC(=O)CN)C(=O)N[C@H](CCCCN)C(=O)N[C@H](CCCCN)C(=O)N[C@H](CCCNC(=N)N)C(=O)N[C@H](CCCNC(=N)N)C(=O)N[C@H](CCC(N)=O)C(=O)N[C@H](CCCNC(=N)N)C(=O)N[C@H](CCCNC(=N)N)C(=O)N[C@H](CCCNC(=N)N)C(=O)N[C@H](CS)C(=O)O` [TAT-Cd, NH2-GRKKRRQRRRC-COOH], for which the “inactivation of preadsorbed virus” value with HSV-1 KOS mutant hrR3 [1] (18° C.) came out at 93%. The compound also gave a virus recovery in the data set with HSV-1 KOS mutant hrR3 [1] (18° C., 0.5 M NaCl) of at most 5.6%. The “potentially released virus actually recovered in the medium” value in the data set on HSV-1 KOS mutant hrR3 [1] (1 h treatment at 4° C., 0.5 M NaCl) turned out to be 4.4%. Moreover, the “infectious preadsorbed virus recovered in the culture medium (maximal)” value in the data set on HSV-1 KOS mutant hrR3 [1] (summary, FIG. 19) is “about 5%”. Also, the “concentration at which not active against the H5 strain” value in the data set with H5 Avian Influenza virus was over 100 µM. Moreover, the punctate keratopathy entry with cornea (calcein staining) is on record as “very mild punctate keratopathy”. Besides, in the data set on cornea (four times a day for seven days), the blepharitis result was “mild blepharitis”. Also, the “plateau / maximal extent of virus inactivation” value with HSV-1 KOS mutant hrR3 [2] was about 100%. Besides, the “recovery of infectious virions, of the mock-treated virus” value with hrR3 virions (1 h at 37° C., pelleted immediately) is under 1%. The “increase of viral yields by 0.5 M NaCl during 19 h incubation, of the mock-treated controls” value with hrR3 virions (19 h at 4° C.) is given as “about 1%”. In addition, the “effect of trypsinization of the peptide on its antiviral activity” value at trypsin is on record as “no effect on antiviral activity”. For the same compound, the “inhibition after rinsing with 0.5 M NaCl” value in the data set with hrR3 (30 μM peptide 1 h at 4° C.) was “completely reversed”. The compound also returned an infection blocked in the data set on hrR3 (30 μM peptide 1 h at 4° C., rinsed with culture medium alone) of 90%. The “time needed to induce cellular resistance” value in the data set with hrR3 (30 μM peptide, 37° C.) is recorded as “almost instantaneously”.
For orientation: EC50 means the concentration that produces a half-maximal response. Turning to `CC[C@H](C)[C@H](NC(=O)[C@H](CCCCN)NC(=O)[C@@H](NC(=O)[C@H](CCC(N)=O)NC(=O)[C@H](CCCNC(=N)N)NC(=O)CCCCCNC(=O)CCCC[C@@H]1SC[C@@H]2NC(=O)N[C@@H]21)[C@@H](C)CC)C(=O)N[C@@H](Cc1c[nH]c2ccccc12)C(=O)N[C@@H](Cc1ccccc1)C(=O)N1CCC[C@H]1C(=O)N[C@@H](CC(N)=O)C(=O)N[C@@H](CCCNC(=N)N)C(=O)N[C@@H](CCCNC(=N)N)C(=O)N[C@@H](CCSC)C(=O)N[C@@H](CCCCN)C(=O)N[C@@H](Cc1c[nH]c2ccccc12)C(=O)N[C@@H](CCCCN)C(=O)N[C@@H](CCCCN)C(N)=O` [bHOM] ({Biotin-Ahx}-RQIKIWFPNRRMKWKK-NH2; N-terminus and C-terminus assumed), the half-maximal effective concentration (EC50) in “MTS assay [3]” was 150 µM; in “MTS assay [4]”, 100 µM; in “MTS assay [6]”, over 200 µM; in the data set “MTS assay [7]” it was over 200 µM; in the data set “MTS assay [8]”, over 200 µM; in the data set “MTS assay [9]” it was 75 µM. Further, the figures for the EC50 in “MTS assay [10]” and in the data set “MTS assay [11]” were 180 µM and 50 µM, respectively. Also, the “cytotoxicity to cells (MTS), overall” value in data set [5] was “generally not cytotoxic”.
With nonoxynol-9 [N−9], the “effect on vaginal tissues (H&E sections)” value in the data set with vagina is given as “No differences in the appearance of the tissues”.
